One test concerns the target T1, human glucocorticoid receptor (hGR) (Homo sapiens, UniProt P04150).
T1 construct: made in house; host or cells: Sf21 insect cells infected with baculovirus hGR, OR IM9 lymphoblast cell line (endogenous hGR)
T1 sequence (P04150 1-777): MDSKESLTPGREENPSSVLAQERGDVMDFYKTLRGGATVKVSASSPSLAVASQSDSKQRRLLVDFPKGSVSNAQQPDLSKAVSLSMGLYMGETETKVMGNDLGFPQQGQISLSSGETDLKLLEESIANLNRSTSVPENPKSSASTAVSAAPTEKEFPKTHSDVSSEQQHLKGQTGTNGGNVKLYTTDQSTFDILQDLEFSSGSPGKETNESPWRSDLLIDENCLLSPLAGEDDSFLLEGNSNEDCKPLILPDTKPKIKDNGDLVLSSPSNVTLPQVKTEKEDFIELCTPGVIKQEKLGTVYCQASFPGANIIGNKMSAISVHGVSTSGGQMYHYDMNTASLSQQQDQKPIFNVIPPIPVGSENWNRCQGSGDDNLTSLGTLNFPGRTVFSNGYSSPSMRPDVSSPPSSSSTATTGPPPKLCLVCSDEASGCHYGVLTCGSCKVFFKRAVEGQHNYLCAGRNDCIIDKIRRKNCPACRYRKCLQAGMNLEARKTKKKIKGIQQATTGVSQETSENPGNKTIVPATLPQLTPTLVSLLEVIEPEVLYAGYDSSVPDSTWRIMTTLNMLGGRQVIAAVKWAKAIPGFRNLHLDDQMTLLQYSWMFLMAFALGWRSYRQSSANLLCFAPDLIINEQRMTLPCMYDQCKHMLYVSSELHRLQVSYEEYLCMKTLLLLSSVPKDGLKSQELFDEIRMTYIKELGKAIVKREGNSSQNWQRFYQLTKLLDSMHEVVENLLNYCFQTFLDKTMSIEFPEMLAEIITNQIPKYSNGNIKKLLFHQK
The experiment in a line: human glucocorticoid receptor binding assay (displacement of 3(H) Triamcinolone acetonide).
Settings: not given
The procedure:
A human glucocorticoid receptor binding assay was carried out to determine the extent to which the compounds of this invention have the ability to bind to human glucocorticoid receptors. This binding ability may be indicative of the antiinflammatory activity of the compound. The test was carried out as follows.
Human glucocorticoid receptors were prepared from either insect cells (Sf21) infected with baculovirus hGR or from a lymphoblast cell line which expresses high levels of endogenous hGR (IM9). The receptor binding reactions, with or without test compounds, were set up in 96-well microtiter plates which were previously siliconized with SIGMACOTE™, a chlorinated organopolysiloxane in heptane. The binding components, 3(H) Triamcinolone acetonide (TAA), glycerol/molybdate-containing buffer and unlabeled compounds were added to the wells using a combination of BIOMEK laboratory automation system and repeat pipettes. After four hours of incubation, the samples were precipitated with polyethylene glycol and filtered through Whatman GF/F paper using a TOMTEK cell harvester. The filter mate with 96 samples were bound to a solid-phase scintillant and directly counted in a BETAPLATE counter. […] The activity of test compounds to displace 3(H) TAA binding to hGR is also expressed as percent inhibition at 1 μM.
What is called IC50 is the midpoint of a concentration-inhibition curve. Turning to `COc1ccc(CC(=O)NCC(c2ccccc2)C(c2ccccc2)c2ccccc2)cc1` (centres unmarked) [Compound 6], the IC50 amounted to 0.91 µM. Same read-out and setting: the value for `O=C(Cc1ccc(Cl)c(Cl)c1)NCC(c1ccccc1)C(c1ccccc1)c1ccccc1` (centres unmarked) [Compound 9] was 1.48 µM; that for `O=C(NCC(c1ccccc1)C(c1ccccc1)c1ccccc1)C(c1ccccc1)c1ccccc1` (centres unmarked) [Compound 13] was 0.78 µM; that for `O=C(CCc1ccccc1Cl)NCC(c1ccccc1)C(c1ccccc1)c1ccccc1` (centres unmarked) [Compound 22] was 0.103 µM.

In the case of `O=S(=O)(Cc1ccccc1)NCC(c1ccccc1)C(c1ccccc1)c1ccccc1` (centres unmarked) [Compound 25], the IC50 was 0.21 µM. On to `Cc1ccc(S(=O)(=O)NCC(c2ccccc2)C(c2ccccc2)c2ccccc2)cc1` (centres unmarked) [Compound 26], for which the IC50 was 0.175 µM. As for `O=C(CS(=O)(=O)c1ccccc1)NCC(c1ccccc1)C(c1ccccc1)c1ccccc1` (centres unmarked) [Compound 27], the half-maximal inhibitory concentration (IC50) came out at 0.067 µM.

On to `Cc1ccc(S(=O)(=O)CC(=O)NCC(c2ccccc2)C(c2ccccc2)c2ccccc2)cc1` (centres unmarked) [Compound 28], for which the IC50 turned out to be 0.057 µM. Take `Cc1ccc(C(=O)NCC(c2ccccc2)C(c2ccccc2)c2ccccc2)s1` (centres unmarked) [Compound 30]: the IC50 was found to be 0.05 µM. Consider `O=C(Cc1cccs1)NCC(c1ccccc1)C(c1ccc(F)cc1)c1ccc(F)cc1` (centres unmarked) [Compound 31], for which the IC50 came out at 0.008 µM. On the same count and under the same terms, the value for `O=C(Cc1cccs1)NCC(c1ccc(I)cc1)C(c1ccccc1)c1ccccc1` (centres unmarked) [Compound 33] was 0.0086 µM; that for `O=C(Cc1ccsc1)NCC(c1ccc(Cl)cc1)C(c1ccccc1)c1ccccc1` (centres unmarked) [Compound 35] was 0.054 µM. Still for that read-out and setting: for `O=C(C=Cc1cccs1)NCC(c1ccccc1)C(c1ccccc1)c1ccccc1` (centres unmarked) [Compound 38] the value was 0.189 µM. Still for that read-out and setting: for `O=C(C=Cc1ccsc1)NCC(c1ccccc1)C(c1ccccc1)c1ccccc1` (centres unmarked) [Compound 39] the value was 0.727 µM; for `O=S(=O)(NCC(c1ccc(Cl)cc1)C(c1ccccc1)c1ccccc1)c1cccs1` (centres unmarked) [Compound 41], 0.491 µM. Take `O=C(NCC(c1ccccc1)C(c1ccccc1)c1ccccc1)c1cc2ccccc2s1` (centres unmarked) [Compound 43]: the half-inhibitory concentration (IC50) was determined as 0.495 µM.

Regarding `CN(CC(c1ccccc1)C(c1ccccc1)c1ccccc1)C(=O)Cc1cccs1` (centres unmarked) [Compound 44], the IC50 is 0.133 µM. For `O=C(NCC(c1ccccc1)C(c1ccccc1)c1ccccc1)Nc1ccccc1Cl` (centres unmarked) [Compound 52], the IC50 came out at 0.273 µM. Same read-out and setting: the value for `O=C(NCC(c1ccccc1)C(c1ccccc1)c1ccccc1)Nc1ccccc1F` (centres unmarked) [Compound 53] was 0.293 µM; that for `O=C(NCc1ccccc1)NCC(c1ccccc1)C(c1ccccc1)c1ccccc1` (centres unmarked) [Compound 54] was 0.219 µM.

Take `O=C(NCc1ccc(Cl)cc1Cl)NCC(c1ccccc1)C(c1ccccc1)c1ccccc1` (centres unmarked) [Compound 55]: the IC50 turned out to be 0.121 µM. Turning to `O=C(NCC(c1ccccc1)C(c1ccccc1)c1ccccc1)Oc1ccccc1` (centres unmarked) [Compound 56], the IC50 came to 0.31 µM. For `O=C(NCC(c1ccccc1)C(c1ccccc1)c1ccccc1)Oc1ccc(F)cc1` (centres unmarked) [Compound 58], the IC50 was found to be 0.24 µM. Still for that read-out and setting: the value for `O=C(NCC(c1ccccc1)C(c1ccccc1)c1ccccc1)Oc1ccc2ccccc2c1` (centres unmarked) [Compound 59] was 0.155 µM. Same read-out and setting: for `CCCC(=O)NCC(c1ccccc1)C(c1ccccc1)c1ccccc1` (centres unmarked) [Compound 60] the value was 0.446 µM. On the same count and under the same terms, for `CC(C)C(=O)NCC(c1ccccc1)C(c1ccccc1)c1ccccc1` (centres unmarked) [Compound 61] the value was 0.584 µM; for `CCCCC(=O)NCC(c1ccccc1)C(c1ccccc1)c1ccccc1` (centres unmarked) [Compound 62], 0.121 µM. In the case of `CC(C)CC(=O)NCC(c1ccccc1)C(c1ccccc1)c1ccccc1` (centres unmarked) [Compound 63], the IC50 stood at 0.316 µM. Still for that read-out and setting: the value for `CC(C)(C)C(=O)NCC(c1ccccc1)C(c1ccccc1)c1ccccc1` (centres unmarked) [Compound 64] was 0.296 µM; that for `CCOC(=O)CC(=O)NCC(c1ccccc1)C(c1ccccc1)c1ccccc1` (centres unmarked) [Compound 65] was 0.937 µM; that for `O=C(Cc1ccccc1)NCC(c1ccccc1)C1c2ccccc2CCc2ccccc21` (centres unmarked) [Compound 73] was 0.77 µM.

On to `COc1ccccc1CCC(=O)NCC(c1ccccc1)C1c2ccccc2CCc2ccccc21` (centres unmarked) [Compound 74], for which the IC50 is 0.388 µM. Same read-out and setting: the value for `O=C(Cc1cccs1)NCC(c1ccccc1)C1c2ccccc2CCc2ccccc21` (centres unmarked) [Compound 75] was 0.363 µM; that for `O=C(Cc1ccsc1)NCC(c1ccccc1)C1c2ccccc2CCc2ccccc21` (centres unmarked) [Compound 76] was 0.571 µM. The same measure, in the same setting: the value for `Cc1ccc(C(=O)NCC(c2ccccc2)C2c3ccccc3CCc3ccccc32)s1` (centres unmarked) [Compound 77] was 0.882 µM; that for `COc1ccccc1CCC(=O)NCC1(c2ccccc2)CC1(c1ccccc1)c1ccccc1` (centres unmarked) [Compound 81] was 0.709 µM.

For `O=C(Cc1cccs1)NCC1(c2ccccc2)CC1(c1ccccc1)c1ccccc1` (centres unmarked) [Compound 88], the IC50 turned out to be 0.425 µM. Still for that read-out and setting: for `O=C(NCC1(c2ccccc2)CC1(c1ccccc1)c1ccccc1)c1cccs1` (centres unmarked) [Compound 90] the value was 0.612 µM; for `Cc1ccc(C(=O)NCC2(c3ccccc3)CC2(c2ccccc2)c2ccccc2)s1` (centres unmarked) [Compound 91], 0.421 µM.

Still in this test, the particulars now being: concentration not given.
`COc1ccccc1NC(=O)NCC(c1ccccc1)C(c1ccccc1)c1ccccc1` (centres unmarked) [Compound 51]: the “hGR, value given as %” value is given as 32%. On to `COc1ccccc1CC(=O)NCC(c1ccccc1)C1c2ccccc2-c2ccccc21` (centres unmarked) [Compound 67], for which the “hGR, value given as %” value is 23%. Same read-out and setting: for `COc1ccccc1CCC(=O)NCC(c1ccccc1)C1c2ccccc2-c2ccccc21` (centres unmarked) [Compound 70] the value was 53%.

Another test relates to oxazolone-induced ear swelling (MOCH) in albino male CD-1 mice. The experiment in a line: mouse oxazolone-induced contact hypersensitization (MOCH) ear swelling. It counts as in vivo. On the set-up: % Inhibition MOCH: concentration or dose not given beside the values. Conditions: mouse, in vivo. Here is the method:
Several triphenylpropanamide compounds of this invention, having varying affinities for the human glucocorticoid receptor, were tested for topical antiinflammatory activity in mouse ear inflammation models. […] Compounds having receptor affinities closer to hydrocortisone were as nearly active as hydrocortisone in suppressing mouse oxazolone-induced contact hypersensitization (MOCH) and phorbol ester-induced ear edema. The in vivo studies of this example were conducted as follows.
In determining the MOCH using the compounds of this invention, albino male CD-1 mice, 7-9 weeks old were induced on the shaved abdomen with 50 μl of 3% oxazolone in acetone/corn oil (Day 0). On Day 5, a 20 μl volume of 2% oxazolone in acetone was applied to the dorsal left ear of the mouse . Compounds (made in ethanol/propylene glycol, 70:30) were applied to the left ear in 20 μl volume, one hour after oxazolone challenge. The right ear was not treated. The mice were sacrificed by carbon dioxide inhalation 24 hours after oxazolone challenge, the left and right ears were removed and a 7 mm biopsy was removed from each ear and weighed. The difference in biopsy weights between the right and left ears was calculated. Antiinflammatory effects of compounds were evident as an inhibition of the increase in ear weight.
On to `O=C(Cc1cccs1)NCC(c1ccc2c(c1)OCO2)C(c1ccccc1)c1ccccc1` (centres unmarked) [Compound 99], for which the “% Inhibition MOCH” value is 35%. Same read-out and setting: for `Cc1c(CC(=O)NCC(c2ccc3c(c2)OCO3)C(c2ccccc2)c2ccccc2)sc2ccc(Cl)cc12` (centres unmarked) [Compound 100] the value was 18%; for `O=C(Cc1cc2cc(Cl)ccc2s1)NCC(c1ccc2c(c1)OCO2)C(c1ccccc1)c1ccccc1` (centres unmarked) [Compound 101], 26%; for `O=C(Cc1ccccn1)NCC(c1ccc2c(c1)OCO2)C(c1ccccc1)c1ccccc1` (centres unmarked) [Compound 102], 51%. Consider `O=C(Cc1cccc(C(F)(F)F)c1)NCC(c1ccc2c(c1)OCO2)C(c1ccccc1)c1ccccc1` (centres unmarked) [Compound 103], for which the “% Inhibition MOCH” value stood at 37%. On to `O=C(Cc1cc(C(F)(F)F)cc(C(F)(F)F)c1)NCC(c1ccc2c(c1)OCO2)C(c1ccccc1)c1ccccc1` (centres unmarked) [Compound 104], for which the “% Inhibition MOCH” value is 52%. Same read-out and setting: the value for `O=C(Cc1ccc([N+](=O)[O-])cc1)NCC(c1ccc2c(c1)OCO2)C(c1ccccc1)c1ccccc1` (centres unmarked) [Compound 105] was 24%; that for `CCCCOc1ccc(CC(=O)NCC(c2ccc3c(c2)OCO3)C(c2ccccc2)c2ccccc2)cc1` (centres unmarked) [Compound 106] was 52%.

The same test, now with this note: topical to mouse ear, 1 mg, one hour after oxazolone challenge, ear biopsy weight at 24 hours.
On to `O=C(NCC(c1ccccc1)C(c1ccccc1)c1ccccc1)Nc1ccccc1` (centres unmarked) [Compound 50], for which the “Oxazolone Ear Swelling (MOCH) % inhibition vs. Vehicle at 1 mg” value came to 30%. For `O=C(Cc1ccc(Cl)cc1)NCC(c1ccc2c(c1)OCO2)C(c1ccccc1)c1ccccc1` (centres unmarked) [Compound 98], the “Oxazolone Ear Swelling (MOCH) % inhibition vs. Vehicle at 1 mg” value came to 85%.

Still in this test, the particulars now being: topical, mouse ear.
Take `O=C(Cc1ccc(Cl)cc1)NCC(c1ccc2c(c1)OCO2)C(c1ccccc1)c1ccccc1` (centres unmarked) [Compound 98]: the “topical antiinflammatory activity in the oxazolone model (in words)” value is reported as “equiactive with hydrocortisone”.

(Values after US6509369B2, “Anti-inflammatory compounds” (Ortho-McNeil Pharmaceutical, Inc., priority 1997, dated 2003).)
